# In PubChem BioAssay (NCI):
#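 48-hour exposure; five concentrations; linearly interpolated endpoints. TGI marks complete inhibition of growth.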
# Key:
# Assay in all cases: DTP human tumour cell line panel, 48 h
# [1] = test system: BT-549 breast
# [2] = test system: CCRF-CEM leukemia
# [3] = test system: SK-OV-3 ovarian
# [4] = test system: MCF7 breast
# [5] = test system: 786-0 renal
# [6] = test system: M14 melanoma
# [7] = test system: IGROV1 ovarian
# [8] = test system: OVCAR-5 ovarian
# [9] = test system: UO-31 renal
# [10] = test system: NCI-H460 lung
# [11] = test system: SK-MEL-28 melanoma
# [12] = test system: HT29 colon
# [13] = test system: SK-MEL-5 melanoma
# [14] = test system: UACC-257 melanoma
# [15] = test system: SN12C renal
# [16] = test system: U251 CNS
# [17] = test system: LOX IMVI melanoma
# [18] = test system: UACC-62 melanoma
# [19] = test system: SR leukemia
Compound,TGI [1],TGI [2],TGI [3],TGI [4],TGI [5],TGI [6],TGI [7],TGI [8],TGI [9],TGI [10],TGI [11],TGI [12],TGI [13],TGI [14],TGI [15],TGI [16],TGI [17],TGI [18],TGI [19]
Cc1ccc2c(=O)cc(-c3ccsc3)[nH]c2n1,> 100 µM,> 83 µM,72.6 µM,> 100 µM,> 100 µM,> 58.1 µM,> 100 µM,> 100 µM,9.47 µM,> 100 µM,> 100 µM,> 100 µM,> 28.5 µM,> 100 µM,> 86.2 µM,> 55.2 µM,> 56.6 µM,> 100 µM,–
CCCCCCCCCCCCCCCCOCC(CCl)OP(=O)(O)OP(=O)(O)OCC1OC(n2ccc(N)nc2=O)C(O)C1O (stereo unspecified),> 100 µM,> 100 µM,> 100 µM,> 100 µM,> 100 µM,> 100 µM,> 100 µM,> 100 µM,> 100 µM,> 100 µM,> 100 µM,> 100 µM,> 100 µM,> 100 µM,> 100 µM,> 100 µM,> 100 µM,> 100 µM,–
CC(=O)OCC(OC(C)=O)C(OC(C)=O)C(OC(C)=O)C(C=NN(C(C)=O)S(=O)(=O)c1ccc(/C=C2\NC(=O)NC2=O)cc1)OC(C)=O (stereo unspecified),> 100 µM,> 100 µM,> 100 µM,> 100 µM,> 100 µM,> 100 µM,> 100 µM,> 100 µM,> 100 µM,> 100 µM,–,> 100 µM,> 100 µM,> 100 µM,> 100 µM,> 100 µM,> 100 µM,> 100 µM,–
C/C(=N\NC(=S)N(C)CCN(C)C(=S)N/N=C(\C)c1ccccn1)c1ccccn1,–,12.1 µM,20.1 µM,18.3 µM,> 100 µM,> 100 µM,3.96 µM,42 µM,15.4 µM,–,19.8 µM,24.4 µM,2.16 µM,11 µM,6.91 µM,18.9 µM,22.6 µM,8.07 µM,3.71 µM
NCCC(=O)N[C@@H](Cc1cc(O)c(O)c(SCC(NC(=O)CC[C@H](N)C(=O)O)C(=O)NCC(=O)O)c1)C(=O)O (stereo partly specified),> 50 µM,–,> 50 µM,> 50 µM,> 50 µM,> 50 µM,> 50 µM,> 50 µM,> 50 µM,> 50 µM,> 50 µM,> 50 µM,–,> 50 µM,> 50 µM,> 50 µM,–,> 50 µM,–
CC(C)SC(NC(=O)C1C(C)(C)CCC1(C)C)C(=O)O (stereo unspecified),–,> 100 µM,> 100 µM,> 100 µM,> 100 µM,> 100 µM,> 100 µM,> 100 µM,> 100 µM,> 100 µM,> 100 µM,–,> 100 µM,–,> 100 µM,> 100 µM,> 100 µM,> 100 µM,–
CN(CC(=O)O)c1ncc2c(n1)-c1ccccc1OC2,–,> 100 µM,–,> 100 µM,> 100 µM,> 100 µM,> 100 µM,> 100 µM,> 100 µM,> 100 µM,> 100 µM,> 100 µM,> 100 µM,> 100 µM,> 100 µM,> 100 µM,> 100 µM,> 100 µM,> 100 µM
COC(=O)/C=C\C(C#N)(C#N)N=Cc1ccc(Br)s1,16.8 µM,5.5 µM,33.4 µM,6.1 µM,12.9 µM,8.86 µM,31.9 µM,31.5 µM,7.18 µM,48 µM,33.7 µM,–,27.4 µM,28.6 µM,35.1 µM,38 µM,7.39 µM,24.9 µM,–
COC(=O)c1c2c(cc3c1CC1(Cc4cc5c(cc4C1=O)CCC5)C3)CCC2 (stereo unspecified),> 100 µM,> 100 µM,93.8 µM,> 100 µM,> 100 µM,> 100 µM,> 100 µM,> 100 µM,> 100 µM,> 100 µM,> 100 µM,> 100 µM,54.4 µM,> 100 µM,> 100 µM,> 100 µM,> 100 µM,> 100 µM,–
Cc1ccc(/C=C2\Cc3cccc(C)c3C2=O)c(C(=O)O)c1,> 100 µM,> 100 µM,–,–,> 100 µM,> 100 µM,> 100 µM,> 100 µM,31.4 µM,> 100 µM,> 100 µM,> 100 µM,> 100 µM,> 100 µM,> 100 µM,> 100 µM,> 100 µM,–,> 100 µM
Cc1cc(C)nc(SCCc2cccc[n+]2C)n1,> 100 µM,> 100 µM,> 100 µM,> 100 µM,> 100 µM,> 100 µM,> 100 µM,> 100 µM,> 100 µM,> 100 µM,> 100 µM,> 100 µM,> 100 µM,> 100 µM,> 100 µM,> 100 µM,> 100 µM,> 100 µM,–
CC(=O)N1CC(=O)N2C(=O)/C(=C/c3ccc(Cl)cc3)N=C12,> 100 µM,> 100 µM,> 100 µM,> 100 µM,> 100 µM,> 100 µM,–,> 100 µM,> 100 µM,> 100 µM,> 100 µM,> 100 µM,> 100 µM,> 100 µM,> 100 µM,> 100 µM,> 100 µM,> 100 µM,–
O=C(c1cc2c(c3ccccc13)NCCN=C2C(F)(F)F)C(F)(F)F,–,> 100 µM,93.2 µM,> 100 µM,84.8 µM,79.6 µM,> 100 µM,> 100 µM,> 100 µM,34.4 µM,47.8 µM,33.1 µM,31 µM,42.7 µM,–,36.9 µM,38.4 µM,–,21.3 µM
Clc1ccc(-c2ccc(-c3nn4c(CNc5ccccc5)nnc4s3)o2)c(Cl)c1,> 100 µM,> 100 µM,> 100 µM,–,> 100 µM,> 100 µM,> 100 µM,> 100 µM,> 100 µM,> 100 µM,> 100 µM,> 100 µM,> 100 µM,> 100 µM,> 100 µM,> 100 µM,> 100 µM,–,> 100 µM
